Measured values from patent US20110318412A1, “LOW DOSE DOXEPIN FORMULATIONS, INCLUDING BUCCAL, SUBLINGUAL AND FASTMELT FORMULATIONS, AND USES OF THE SAME TO TREAT INSOMNIA” (Somaxon Pharmaceuticals, Inc., priority 2006, published 2011).
Structures can show the parent of a compound that is named as a salt.

How the values were obtained:
[1] = Doxepin plasma concentration after a 3 mg capsule in humans; assay type: in vivo, human
Description: An estimate of the doxepin plasma concentrations associated with the initiation of sleep was obtained by combining data from multiple studies.
In a separate study, in humans averaging about 70 kg, receiving a 3 mg capsule comprising doxepin hydrochloride, lactose monohydrate fast-flow, sodium lauryl sulfate and magnesium stearate, the average plasma concentration at 60 minutes was approximately 0.1 ng/mL.
Without being limited, it is believed that the doxepin plasma concentration achieved approximately 1 hour after a 3 mg dose is sufficient for sleep initiation. The conclusion is that doxepin plasma concentrations of 0.1 ng/mL or greater were associated with initiation of sleep.

[2] = Measured physicochemical parameters (logP, pKa) used for the simulation
[3] = Measured bioavailability used for the simulation; settings: in vivo
human subjects = test: Sleep onset after a 3 mg doxepin hydrochloride capsule in human subjects; assay type: in vivo; settings: human subjects averaging about 70 kg
[4] = Wu-Benet, 2005; cited from earlier work

Row | Structure (SMILES) | doxepin plasma concentration associated with initiation of sleep ([1]; estimate from combining data from multiple studies) [ng/mL] | logP [2] | pKa [2] | bioavailability [3] [%] | sleep onset compared with a placebo dose (human subjects; 3 mg capsule) | time of sleep onset after dosing (human subjects; 3 mg capsule (doxepin hydrochloride, lactose monohydrate fast-flow, sodium lauryl sulfate, magnesium stearate)) | concentration at 60 min ([1]; human, plasma, oral, humans averaging about 70 kg, 3 mg capsule, separate study) [ng/mL] | Biopharmaceutic Classification System class [4] | solubility (Biopharmaceutic Classification System) [4]
1 | CN(C)CCC=C1c2ccccc2COc2ccccc21 (mixture of isomers) [doxepin] | ≥ 0.1 | 4.13 | 8.96 | 29 | – | – | – | – | –
2 | CN(C)CCC=C1c2ccccc2COc2ccccc21 (mixture of isomers) [doxepin hydrochloride] | – | – | – | – | significantly earlier than with a placebo dose | about 60 minutes | ~0.1 | Class One | high solubility
